US20260200903A1, “PHARMACEUTICAL COMPOSITION FOR AMELIORATING MALIGNANT DISEASES” (KINKI UNIVERSITY, priority 2020, published 2026)

What was measured:
Type in all cases: cell-based
[1] = system: CCRF-SB cells (acute lymphocytic leukemia cell line); assay: Cell death inducing effect on CCRF-SB cells, trypan blue staining; details: CCRF-SB (acute lymphoblastic leukemia), cell viability
Protocol: CCRF-SB cells (acute lymphocytic leukemia cell line) were cultured under 5% CO2 at 37° C. The culture medium used RPMI-1640 medium with 100 μg/mL penicillin, 100 U/mL streptomycin and fetal bovine serum. CCRF-SB cells were seeded into 96-well plates and incubated with each concentration of the compounds was added, and cell viability was determined by the trypan blue staining.
For controls, only 0.5% DMSO (diluted in PBS) used to dissolve the compounds was added. For each concentration, each bar line is indicated by an arrow with the sign “n, a, 1, 2, 3, 4, 5, 6, 7, 8, 9, 10, 11, 12” from left to right. The “1, 3, 5, 7, 9, 11” are omitted from the graph, but the sign “1” shall be indicated by an arrow between the signs “a” and “2”, the sign “3” between the signs “2” and “4”, and other odd numbers shall likewise be indicated by arrows between even numbers before and after.
The sign “n” is the norathyriol (formula (n)) administration group, the sign “a” is the mangiferin 8a (formula (a)) administration group, the sign “1” is the yk-7 (formula (1)) administration group, the sign “2” is the yk-8-1 (formula (2)) administration group, the sign “3” is the yk-8-3 (formula (3)) administration group, the sign “4” is the M7 (formula (4)) administration group, the sign “5” is the M9 (formula (5)) administration group, the sign “6” is the M11 (formula (6)) administration group, the sign “7” is the M12 (formula (7)) administration group, the sign “8” is the M14 (formula (8)) administration group, the sign “9” is the M15 (formula (9)) administration group, the sign “10” is the M16 (formula (10)) administration group, the sign “11” is the M18 (formula (11)) administration group, the sign “12” is the M19 (formula (12)) administration group, respectively. The IC50 values for each compound is also listed in the upper right corner of the figure.

phospho-NIK = target: T1, phospho-NIK (Homo sapiens, UniProt Q99558); assay: Immunoblotting of phospho-NIK in KMS-28BM cells; details: 72 h, vs control, 1 μM mangiferin 8a/M8, 1 μM norathyriol, 0.5 μM M7, 0.2 μM M9, 5 μM yk-7, 0.5 μM yk-8-3, 100 μM yk-8-1, 0.5 μM M19, M18, M11, 0.005 μM M16, M15, M14, 0.05 μM M12
T1 construct: Proteins were extracted from these cell suspensions with cell lysate and used as samples; endogenous in cells; host or cells: KMS-28BM (myeloma)
T1 sequence (Q99558 whole entry): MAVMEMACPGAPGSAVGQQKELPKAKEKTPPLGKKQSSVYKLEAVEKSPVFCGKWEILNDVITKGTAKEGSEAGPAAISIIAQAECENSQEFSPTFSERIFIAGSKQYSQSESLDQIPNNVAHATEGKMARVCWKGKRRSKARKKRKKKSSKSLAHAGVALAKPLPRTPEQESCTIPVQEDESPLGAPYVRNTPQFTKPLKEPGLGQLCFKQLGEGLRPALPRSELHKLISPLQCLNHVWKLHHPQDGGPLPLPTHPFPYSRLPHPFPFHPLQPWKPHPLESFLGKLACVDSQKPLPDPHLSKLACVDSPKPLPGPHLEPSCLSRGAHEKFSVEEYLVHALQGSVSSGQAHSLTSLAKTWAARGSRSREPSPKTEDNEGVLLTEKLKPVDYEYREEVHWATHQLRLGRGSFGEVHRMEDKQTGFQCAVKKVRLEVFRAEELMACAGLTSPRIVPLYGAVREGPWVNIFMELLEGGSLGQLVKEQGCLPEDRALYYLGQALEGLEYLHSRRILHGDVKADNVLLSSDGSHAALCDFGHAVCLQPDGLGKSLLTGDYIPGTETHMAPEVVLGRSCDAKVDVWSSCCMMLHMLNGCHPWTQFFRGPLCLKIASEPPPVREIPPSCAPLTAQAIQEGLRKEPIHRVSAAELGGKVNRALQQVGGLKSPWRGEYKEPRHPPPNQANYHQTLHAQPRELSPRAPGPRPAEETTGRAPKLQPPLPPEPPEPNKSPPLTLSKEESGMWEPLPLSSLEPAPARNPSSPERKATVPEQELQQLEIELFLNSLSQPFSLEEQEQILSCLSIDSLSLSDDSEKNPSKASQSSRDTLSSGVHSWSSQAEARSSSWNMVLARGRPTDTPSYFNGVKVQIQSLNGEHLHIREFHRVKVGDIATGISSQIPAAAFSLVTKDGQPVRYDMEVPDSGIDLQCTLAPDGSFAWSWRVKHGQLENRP
Protocol: Immunoblotting was performed on KMS-28BM cells to investigate the inhibitory effect of each compound administration on NIK inhibition and the activation of IKK, NF-κB p52, and NF-κB p65, which are downstream signals of NIK. As a result, inhibition of NIK activation, inhibition of IKK activity, and inhibition of nuclear translocation of NF-κB p52 and NF-κB p65 were observed (FIG. 15 and FIG. 16).
As a control, compounds untreated KMS-28BM cells were seeded in 150 cm^2 flasks and incubated for 72 h at 37° C. and 5% CO2. KMS-28BM cells were seeded into 150 cm^2 flasks and pre-cultured for 24 h. After incubation, KMS-28BM cells were treated with […], 1 μM norathyriol, 0.5 μM M7 (formula (4)), 1 μM M8 (mangiferin 8a: listed in duplicate), 0.2 μM M9 (formula (5)), 5 μM yk-7 (formula (1)), 0.5 μM yk-8-3 (formula (3)) and 100 μM yk-8-1 (formula (2)) at final concentrations, and incubated for 72 h at 37° C. and 5% CO2. In addition, KMS-28BM cells were also treated with 0.5 μM M19 (formula (12)), 0.5 μM M18 (formula (11)), 0.005 μM M16 (formula (10)), […] (formula (9)), 0.005 μM M14 (formula (8)), 0.05 μM M12 (formula (7)) and […] (formula (6)) at the final concentrations, and incubated for 72 h at 37° C. and 5% CO2. Proteins were extracted from these cell suspensions with cell lysate and used as samples.
The nucleus and cytoplasmic substrate were separated from the cells using the ProteoExtract (registered trademark) Subcellular Proteome Extraction Kit from Merck Ltd. to extract the cytoplasmic and nuclear fractions.
After SDS-PAGE, each sample was transferred to a PVDF membrane and examined using anti-phospho-NIK, anti-NIK, anti-phospho-IKK, anti-IKK, anti-P-actin, anti-NF-κB p52 and anti-NF-κB p65 antibody, and anti-Lamin antibody.
The antibody species is indicated in the vertical direction. Specifically, for anti-phospho-NIK antibody, “Phospho-NIK” was used, for anti-NIK antibody, “NIK” was used, for anti-phospho-IKK antibody, “Phospho-IKK” was used, for anti-IKK antibody, “IKK” was used, for anti-p-actin antibody, “p-actin” was used, for anti-NF-κB p52 antibody, “NF-κB p52 nuclear” was used, for anti-NF-κB p65 antibody, “NF-κB p65 nuclear” was used, and for anti-Lamin antibody, “Lamin” was used.

CD138 = CD138 expression in L363 cells, flow cytometry; details: 10 days, concentration lower than the IC50 (0.005-50 μM), compared to the positive control
Protocol: As a control, compounds untreated L363 cells were seeded in 75 cm^2 flasks and incubated for 10 days at 37° C. and 5% CO2. L363 cells were seeded into 75 cm^2 flasks and pre-cultured for 4 h. After incubation, L363 cells were treated with 0.1 μM M7, 0.05 μM M9, 0.1 μM yk-7, 0.1 μM yk-8-3, 50 μM yk-8-1, 0.1 μM M11, 0.01 μM M12, 0.005 μM M14, 0.005 μM M15, 0.005 μM M16, 1 μM M18, and 1 μM M19 at final concentrations, and incubated for 10 days at 37° C. and 5% CO2. This added amount is a concentration lower than the IC50 of the above compounds for L363 cells. After 10 days of incubation, cells were stained with anti-CD138 antibody, a marker of multiple myeloma grade, and CD138 expression was measured using BD LSRFortessa.
Results are shown in FIG. 25, FIG. 26, FIG. 27 and FIG. 28. The horizontal axis represents the expression level of CD138 and the vertical axis represents the number of cells.

Molecule | phospho-NIK band density (anti-phospho-NIK antibody) (phospho-NIK) | IC50 ([1]; Homo sapiens) | CD138 expression levels (CD138) | IC50 [1]
CCCCC(=O)OC[C@H]1O[C@@H](c2c(O)cc3oc4cc(O)c(O)cc4c(=O)c3c2OC(=O)CCCC)[C@H](OC(=O)CCCC)[C@@H](OC(=O)CCCC)[C@@H]1OC(=O)CCCC [yk-8-3, 1,2′,3′,4′,6-penta-O-valerylmangiferin] | decrease in band density | 2410 nM | markedly reduced | 
CCCCC(=O)OC[C@H]1O[C@@H](c2c(OC(=O)CCCC)cc3oc4cc(OC(=O)CCCC)c(OC(=O)CCCC)cc4c(=O)c3c2OC(=O)CCCC)[C@H](OC(=O)CCCC)[C@@H](OC(=O)CCCC)[C@@H]1OC(=O)CCCC [yk-8-1, 1,3,2′,3′,4′,6,6′,7-octa-O-valerylmangiferin] | decrease in band density |  | markedly reduced | > 100000 nM
O=c1c2cc(O)c(O)cc2oc2cc(O)cc(O)c12 [norathyriol, reference compound] | decrease in band density | 12300 nM |  | 
1,2′,3′,4′,6-penta-O-propionylmangiferin [Compound 8a, reference compound] | decrease in band density |  |  | 7420 nM
CCCCC(=O)OC[C@H]1O[C@@H](c2c(O)cc3oc4cc(O)c(O)cc4c(=O)c3c2O)[C@H](OC(=O)CCCC)[C@@H](OC(=O)CCCC)[C@@H]1OC(=O)CCCC [yk-7, 2′,3′,4′,6′-tetra-O-valerylmangiferin] | decrease in band density | 1840 nM | markedly reduced | 

Continued, in another order:

phospho-NIK band density (anti-phospho-NIK antibody) (phospho-NIK) | Molecule | IC50 ([1]; Homo sapiens) | CD138 expression levels (CD138) | IC50 [1]
decrease in band density | CCCCO[C@@H]1[C@@H](OCCCC)[C@H](c2c(O)cc3oc4cc(O)c(O)cc4c(=O)c3c2O)O[C@H](COC(=O)CCC)[C@H]1OC(=O)CCC [Compound M16, 2′,3′-di-O-butyl-4′,6′-di-O-butyrylmangiferin] | 198 nM | markedly reduced | 
decrease in band density | CC(C)(C)C(=O)OC[C@H]1O[C@@H](c2c(O)cc3oc4cc(O)c(O)cc4c(=O)c3c2O)[C@H](OC(=O)C(C)(C)C)[C@@H](OC(=O)C(C)(C)C)[C@@H]1OC(=O)C(C)(C)C [Compound M15, 2′,3′,4′,6′-tetra-O-pivaloylmangiferin] | 357 nM | markedly reduced | 
decrease in band density | CCCC(=O)OC[C@H]1O[C@@H](c2c(OC(=O)CCC)cc3oc4cc(OC(=O)CCC)c(OC(=O)CCC)cc4c(=O)c3c2OC(=O)CCC)[C@H](OC(=O)CCC)[C@@H](OC(=O)CCC)[C@@H]1OC(=O)CCC [Compound M11, 1,3,2′,3′,4′,6,6′,7-octa-O-butyrylmangiferin] |  | markedly reduced | 7820 nM
decrease in band density | C=CCOc1cc(O)cc2oc3cc(O)c(O)cc3c(=O)c12 [Compound M19, 1-allyloxy-3,6,7-trihydroxy-9H-xanthen-9-one] | 18200 nM | markedly reduced | 
decrease in band density | CCC(=O)OC[C@H]1O[C@@H](c2c(O)cc3oc4cc(O)c(O)cc4c(=O)c3c2O)[C@H](OC(=O)CC)[C@@H](OC(=O)CC)[C@@H]1OC(=O)CC [Compound M9, 2′,3′,4′,6′-tetra-O-propionylmangiferin] | 1620 nM | markedly reduced | 
decrease in band density | O=c1c2cc(O)c(O)cc2oc2cc(O)cc(OCCO)c12 [Compound M18, 3,6,7-trihydroxy-1-(2-hydroxyethoxy)-9H-xanthen-9-one] | 9180 nM | markedly reduced | 
decrease in band density | CCCC(=O)OC[C@H]1O[C@@H](c2c(O)cc3oc4cc(O)c(O)cc4c(=O)c3c2OC(=O)CCC)[C@H](OC(=O)CCC)[C@@H](OC(=O)CCC)[C@@H]1OC(=O)CCC [Compound M12, 1,2′,3′,4′,6-penta-O-butyrylmangiferin] | 954 nM | markedly reduced | 
decrease in band density | CCC(=O)OC[C@H]1O[C@@H](c2c(OC(=O)CC)cc3oc4cc(OC(=O)CC)c(OC(=O)CC)cc4c(=O)c3c2OC(=O)CC)[C@H](OC(=O)CC)[C@@H](OC(=O)CC)[C@@H]1OC(=O)CC [Compound M7, 1,3,2′,3′,4′,6,6′,7-octa-O-propionylmangiferin] | 6760 nM | markedly reduced | 
decrease in band density | CCCC(=O)OC[C@H]1O[C@@H](c2c(O)cc3oc4cc(O)c(O)cc4c(=O)c3c2O)[C@H](OC(=O)CCC)[C@@H](OC(=O)CCC)[C@@H]1OC(=O)CCC [Compound M14, 2′,3′,4′,6′-tetra-O-butyrylmangiferin] | 287 nM | markedly reduced | 
